Here are results for one compound from ChEMBL document CHEMBL4837225, “Water-soluble derivatives of evodiamine: Discovery of evodiamine-10-phosphate as an orally active antitumor lead compound” (Eur J Med Chem, 2021).

For series [1], the system named is HCT-116. The experiment in a line: Antitumor activity against human HCT-116 cells xenografted in iv dosed BALB/c nude mouse assessed as inhibition of tumor growth measured by caliper relative to control. Format: functional. (A xenograft is tissue or cells of one species grown in another, often human tumour cells in immunodeficient mice.)
Series [2] can be described thus: Toxicity in BALB/c nude mouse xenografted with human HCT-116 cells assessed as effect on body weight at 60 mg/kg, po bid for 21 days relative to control. Particulars: in vivo, 504 h, time 21 day. Format: organism-based.
In series [3] the test system is HCT-116. The experiment in a line: Antitumor activity against human HCT-116 cells xenografted in BALB/c nude mouse assessed as inhibition of tumor growth at 150 mg/kg, po BID measured by caliper relative to control. In kind it is functional. Particulars: HCT-116, po, read-out: TGI.
Another series deals with Tubulin. Briefly: Inhibition of tubulin polymerization (unknown origin). Format: protein-complex assay, Homo sapiens.
For series [4], the system named is HCT-116. Briefly: Cell cycle arrest in human HCT-116 cells assessed as accumulation at S phase at 0.1 uM incubated for 24 hrs by propidium iodide staining based flow cytometric analysis (Rvb =44.3 %). In kind it is functional.
Series [5] is described as follows: Solubility of the compound in double distilled water. Format: physicochemical.
The test system of series [6] is HCT-116. The experiment in a line: Induction of apoptosis in human HCT-116 cells assessed as late apoptotic cells level at 0.5 uM incubated for 48 hrs by annexin V-FITC/propidium iodide staining based flow cytometry (reference value: 1.87%). In kind it is functional. A general note: A flow cytometer gives signals particle by particle.
Series [7] has as its system HCT-116. Briefly: Induction of apoptosis in human HCT-116 cells assessed as early apoptotic cells level at 0.1 uM incubated for 48 hrs by annexin V-FITC/propidium iodide staining based flow cytometry (reference value: 2.02%). In kind it is functional.
Series [8] deals with HCT-116. Briefly: Induction of apoptosis in human HCT-116 cells assessed as increase in caspase-3 level at 0.2 to 5 uM measured after 24 hrs by Western blot analysis. Format: functional, cell-based. To be noted: dose 0.2-5 µM. Background: Immunoblotting shows a protein as a band on a membrane.
Series [9] relates to HCT-116. Briefly: Cell cycle arrest in human HCT-116 cells assessed as accumulation at G2 phase at 0.1 uM incubated for 24 hrs by propidium iodide staining based flow cytometric analysis (Rvb =20 %). In kind it is functional.
The nature of series [10]: Toxicity in BALB/c nude mouse xenografted with human HCT-116 cells assessed as effect on body weight at 150 mg/kg, po bid for 21 days relative to control. In kind it is organism-based. To be noted: in vivo, 504 h, time 21 day.

SMILES strings stand for the structures. Values after ≈ are worked out from the molar mass of the structure shown. Active and inactive are the calls of the source. The calls are words filed in the database; no cut-off is given here.

A word on the TGI: it is the reduction of tumour growth relative to the control group. As a reminder, the IC50 is the point on the concentration scale where inhibition reaches its midpoint. High values mean weaker potency in that assay, low ones greater potency in that assay. In general, solubility refers to how much of the substance goes into solution per volume. Low readings indicate little dissolved substance, high ones much dissolved substance. On to `CN1c2ccccc2C(=O)N2CCc3c([nH]c4ccc(OP(=O)(O)O)cc34)C21` (stereo unspecified), for which, in the series on HCT-116 [1], the TGI stood at 45%. For the same compound, the Activity entry in [2] is “Non-Toxic”; with HCT-116 [4] it was 40.7%; in the series on HCT-116 [6], 13.49%; with HCT-116 [7], 38.55%; with HCT-116 [9], 53.4%; in series [10] it was “Toxic”. Besides, the inhibition in vivo at 150 mg/kg with HCT-116 [3] is 48%. In addition, the IC50 at Tubulin amounted to 31.6 µM. The same compound displayed a solubility in series [5] of 36 µg/mL (≈ 90.1 µM). For the same compound, the result with HCT-116 [8] was Active.
